This assay has as its system MDA-MB-231 human breast cancer cells. The assay can be described thus: Cell proliferation assay (CellTiter-Glo, 72 hours treatment). It counts as cell-based. Conditions: Homo sapiens; MDA-MB-231 cells, 72 hours at 37° C., CellTiter-Glo; read-out: MDA-MB-231 cell proliferation assay (IC50). As to the method: Human tumor cell lines were cultured in the appropriate media (DMEM and RPMI) supplemented with penicillin G (100 U/ml), streptomycin (100 μg/ml), 10% FBS in a humidified atmosphere of 5% CO2 maintained at 37° C. Exponentially growing cells were seeded at 2,500 cells/well in 96 well plates prior to drug treatment. The following day, cells were treated with either DMSO (vehicle control) or eIF4A inhibitors at the appropriate dose for 72 hours at 37° C. Following compound treatment, cell proliferation was assessed by CellTiter-Glo assay (Promega, Madison Wis.) according to the manufacturer's protocol. Dose-response curves were fitted by non-linear regression (sigmoidal dose response model) using KaleidaGraph (Synergy Software, Reading Pa.) and IC50 values were calculated.
To this end, IC50 values of less than 100 nM are labelled as “+++”, from 100 nM to 1000 nM are labelled as “++”, and greater than 1000 nM are labelled as “+” (NA means “not available”).

In the case of `COC(=O)C1(F)[C@@H](O)[C@@]2(O)c3ncc(Cl)cc3O[C@@]2(c2ccc(C#N)cc2)[C@@H]1c1ccccc1` (mixture of isomers) [59F, Rac-methyl (5aR,6S,8S,8aS)-3-chloro-5a-(4-cyanophenyl)-7-fluoro-8,8a-dihydroxy-6-phenyl-5a,7,8,8a-tetrahydro-6H-cyclopenta[4,5]furo[3,2-b]pyridine-7-carboxylate], the IC50 was > 1000 nM.
The figure for `O[C@]12c3ncc(Cl)cc3O[C@@]1(c1ccc(Br)cc1)[C@H](c1ccccc1)[C@H]1CO[C@H]12` (racemic) [60F, Rac-(2aS,3S,3aR,8bS,8cR)-3a-(4-bromophenyl)-6-chloro-3-phenyl-2a,3,3a,8c-tetrahydrooxeto[3″,2″:4′,5′]cyclopenta[1′,2′:4,5]furo[3,2-b]pyridin-8b(2H)-ol] is > 1000 nM; for `N#Cc1ccc([C@@]23Oc4cc(Cl)cnc4[C@]2(O)[C@@H]2OC[C@@H]2[C@H]3c2ccccc2)cc1` (racemic) [61F, rac-4-((2aS,3S,3aR,8bS,8cR)-6-chloro-8b-hydroxy-3-phenyl-2a,3,8b,8c-tetrahydrooxeto[3″,2″:4′,5′]cyclopenta[1′,2′:4,5]furo[3,2-b]pyridin-3a(2H)-yl)benzonitrile] it is > 1000 nM.
The figure for `COC[C@H]1[C@@H](O)[C@@]2(O)c3ncc(Cl)cc3O[C@@]2(c2ccc(Br)cc2)[C@@H]1c1ccccc1` (racemic) [62F, rac-(5aR,6S,7S,8R,8aS)-5a-(4-bromophenyl)-3-chloro-7-(methoxymethyl)-6-phenyl-5a,6,7,8-tetrahydro-8aH-cyclopenta[4,5]furo[3,2-b]pyridine-8,8a-diol] is 100 to 1000 nM; for `Clc1cnc2c(c1)O[C@@]1(c3ccc(Br)cc3)[C@H](c3ccccc3)C[C@@H]3O[C@@]231` (racemic) [63F, Rac-(1aS,3S,3aR,8bS)-3a-(4-bromophenyl)-6-chloro-3-phenyl-1a,2,3,3a-tetrahydro-oxireno[2″,3″:1′,5′]cyclopenta[1′,2′:4,5]furo[3,2-b]pyridine] it is > 1000 nM; for `COc1cncc2c1[C@]1(O)[C@H](O)[C@H](CN)[C@@H](c3ccccc3)[C@]1(c1ccc(C#N)cc1)O2` (racemic) [65F, Rac-4-((4bS,5R,6S,7S,7aR)-6-(aminomethyl)-4b,5-dihydroxy-4-methoxy-7-phenyl-5,6,7,7a-tetrahydro-4bH-cyclopenta[4,5]furo[2,3-c]pyridin-7a-yl)benzonitrile] it is 100 to 1000 nM.
With `COc1cncc2c1[C@]1(O)[C@H](O)[C@H](CN3CCN(C)CC3)[C@@H](c3ccccc3)[C@]1(c1ccc(C#N)cc1)O2` (racemic) [68F, Rac-4-((4bS,5R,6S,7S,7aR)-4b,5-dihydroxy-4-methoxy-6-((4-methylpiperazin-1-yl)methyl)-7-phenyl-4b,5,6,7-tetrahydro-7aH-cyclopenta[4,5]furo[2,3-c]pyridin-7a-yl)benzonitrile], the IC50 lay within 100 to 1000 nM.
The figure for `CNC[C@H]1[C@@H](O)[C@@]2(O)c3c(OC)cncc3O[C@@]2(c2ccc(C#N)cc2)[C@@H]1c1ccccc1` (racemic) [69F, Rac-4-((4bS,5R,6S,7S,7aR)-4b,5-dihydroxy-4-methoxy-6-((methylamino)methyl)-7-phenyl-4b,5,6,7-tetrahydro-7aH-cyclopenta[4,5]furo[2,3-c]pyridin-7a-yl)benzonitrile] is 100 to 1000 nM.
As for `CCNC[C@@H]1[C@@H](c2ccccc2)[C@]2(C3=CC=C(C#N)CC3)Oc3cncc(OC)c3[C@]2(O)[C@@H]1O` (racemic) [70F, Rac-4-((4bS,5R,6S,7S,7aR)-6-((ethylamino)methyl)-4b,5-dihydroxy-4-methoxy-7-phenyl-4b,5,6,7-tetrahydro-7aH-cyclopenta[4,5]furo[2,3-c]pyridin-7a-yl)cyclohexa-1,3-diene-1-carbonitrile], the IC50 lay in the range of 100 to 1000 nM.
The figure for `COc1cncc2c1[C@]1(O)[C@H](O)[C@H](CN3CCC3)[C@@H](c3ccccc3)[C@]1(c1ccc(C#N)cc1)O2` (racemic) [71F, Rac-4-((4bS,5R,6S,7S,7aR)-6-(azetidin-1-ylmethyl)-4b,5-dihydroxy-4-methoxy-7-phenyl-4b,5,6,7-tetrahydro-7aH-cyclopenta[4,5]furo[2,3-c]pyridin-7a-yl)benzonitrile] is < 100 nM; for `COc1cncc2c1[C@]1(O)[C@H](O)[C@H](CN3CCCC3)[C@@H](c3ccccc3)[C@]1(c1ccc(C#N)cc1)O2` (racemic) [72F, rac-4-((4bS,5R,6S,7S,7aR)-4b,5-dihydroxy-4-methoxy-7-phenyl-6-(pyrrolidin-1-ylmethyl)-4b,5,6,7-tetrahydro-7aH-cyclopenta[4,5]furo[2,3-c]pyridin-7a-yl)benzonitrile] it is 100 to 1000 nM.
On to `CCN(C)C[C@H]1[C@@H](O)[C@@]2(O)c3c(OC)cncc3O[C@@]2(c2ccc(C#N)cc2)[C@@H]1c1ccccc1` (racemic) [74F, Rac-4-((4bS,5R,6S,7S,7aR)-6-((ethyl(methyl)amino)methyl)-4b,5-dihydroxy-4-methoxy-7-phenyl-4b,5,6,7-tetrahydro-7aH-cyclopenta[4,5]furo[2,3-c]pyridin-7a-yl)benzonitrile], for which the IC50 is < 100 nM.
The figure for `COc1cncc2c1[C@]1(O)[C@H](O)[C@H](CN(C)CCO)[C@@H](c3ccccc3)[C@]1(c1ccc(C#N)cc1)O2` (racemic) [75F, rac-4-((4bS,5R,6S,7S,7aR)-4b,5-dihydroxy-6-(((2-hydroxyethyl)(methyl)amino)methyl)-4-methoxy-7-phenyl-4b,5,6,7-tetrahydro-7aH-cyclopenta[4,5]furo[2,3-c]pyridin-7a-yl)benzonitrile] is 100 to 1000 nM; for `COc1cncc2c1[C@]1(O)[C@H](O)[C@H](CN(C)Cc3ccccc3)[C@@H](c3ccccc3)[C@]1(c1ccc(C#N)cc1)O2` (racemic) [76F, Rac-4-((4bS,5R,6S,7S,7aR)-6-((benzyl(methyl)amino)methyl)-4b,5-dihydroxy-4-methoxy-7-phenyl-4b,5,6,7-tetrahydro-7aH-cyclopenta[4,5]furo[2,3-c]pyridin-7a-yl)benzonitrile] it is < 100 nM; for `COc1cncc2c1[C@]1(O)[C@H](O)[C@H](CNCc3ccccc3)[C@@H](c3ccccc3)[C@]1(c1ccc(C#N)cc1)O2` (racemic) [77F, Rac-4-((4bS,5R,6S,7S,7aR)-6-((benzylamino)methyl)-4b,5-dihydroxy-4-methoxy-7-phenyl-4b,5,6,7-tetrahydro-7aH-cyclopenta[4,5]furo[2,3-c]pyridin-7a-yl)benzonitrile] it is < 100 nM.
The figure for `COc1cncc2c1C1(O)[C@H](O)[C@H](CNCc3cccnc3)[C@@H](c3ccccc3)[C@]1(c1ccc(C#N)cc1)O2` (mixture of isomers) [78F, Rac-4-((5R,6S,7S,7aR)-4b,5-dihydroxy-4-methoxy-7-phenyl-6-(((pyridin-3-ylmethyl)amino)methyl)-4b,5,6,7-tetrahydro-7aH-cyclopenta[4,5]furo[2,3-c]pyridin-7a-yl)benzonitrile] is 100 to 1000 nM; for `COc1cncc2c1[C@]1(O)[C@H](O)[C@H](CNCCO)[C@@H](c3ccccc3)[C@]1(c1ccc(C#N)cc1)O2` (racemic) [79F, Rac-4-((4bS,5R,6S,7S,7aR)-4b,5-dihydroxy-6-(((2-hydroxyethyl)amino)methyl)-4-methoxy-7-phenyl-5,6,7,7a-tetrahydro-4bH-cyclopenta[4,5]furo[2,3-c]pyridin-7a-yl)benzonitrile] it is > 1000 nM.

The record behind these values is patent publication US10577378B2, “EIF4A-inhibiting compounds and methods related thereto” (eFFECTOR Therapeutics, Inc., priority 2015, dated 2020).
